Consider one molecule from patent US9221836B2, “Heterocyclic compound and use thereof” (TAKEDA PHARMACEUTICAL COMPANY LIMITED, priority 2008, dated 2015).

In one experiment the target is T1, Human renin (Homo sapiens, UniProt P00797).
T1 sequence (P00797 67-406): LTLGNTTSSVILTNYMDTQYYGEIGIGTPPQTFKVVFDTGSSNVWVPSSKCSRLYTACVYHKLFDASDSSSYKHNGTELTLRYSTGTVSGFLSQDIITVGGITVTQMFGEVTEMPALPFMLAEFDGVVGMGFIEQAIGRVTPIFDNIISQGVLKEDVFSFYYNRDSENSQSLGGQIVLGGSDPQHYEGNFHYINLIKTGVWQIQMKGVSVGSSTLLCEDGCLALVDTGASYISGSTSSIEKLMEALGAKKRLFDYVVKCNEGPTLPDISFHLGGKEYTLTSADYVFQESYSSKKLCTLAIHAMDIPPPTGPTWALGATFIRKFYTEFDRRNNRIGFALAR
Put plainly: Human renin inhibition, angiotensin I quantified by EIA. Particulars: read-out: Human renin inhibitory activity: inhibitory activity (%) at 0.1 μM.

Experiment [1] addresses T2, plasma renin activity (PRA) (Macaca fascicularis, UniProt Q6DLS0).
T2 sequence (Q6DLS0 67-406): T1 sequence (P00797 67-406) with T2A, I148L, S169A
Conditions: male Macaca fascicularis; 1 mg/kg orally in 0.5% methylcellulose; plasma 4 hr after administration; amended with vehicle group.
Method: Male macaca fascicularis was used. The blood samples were collected from femoral vein at the time points of before drug administration and 4 hr after drug administration (EDTA-2Na^+ at final concentration of 7.5 mmol/L was used as an anticoagulant). […] The drug was dissolved in 0.5% methylcellulose and orally administered at 1 mg/kg. […] PRA was calculated by the following formula.
X37° C.: angiotensin I concentration for incubation at 37° C.
X4° C.: angiotensin I concentration for incubation at 4° C.
PRA at each time point after drug administration was calculated as percentage relative to the value before administration and taken as PRA %. The renin inhibitory activity of the drug administration group was calculated as an inhibitory rate by amending the PRA % at each time point after drug administration with PRA % of the vehicle group.

Structures are written as SMILES. Numbering of substitutions follows the chain as printed.

Method for Human renin: (6) Measurement of Renin Inhibition Value
As a substrate for renin activity measurement, the angiotensinogen mentioned in (5) above was used. 1 μl each of the test compound (containing 100% DMSO) was added to each well of a 384-well plate (ABgene). Renin was diluted with a buffer solution for reaction (20 mM sodium phosphate (pH 7.4)) to a concentration of 57 pM, and 14 μl each of the dilution was added to each well. The dilution was left to stand at 37° C. for 10 min, and then 5 μl of each of a 6 μM solution of substrate angiotensinogen was added to each well to initiate the reaction. […] The amount of angiotensin I produced by an enzyme reaction was quantified by Enzyme Immuno Assay (EIA) described below.
Anti-angiotensin I antibody (Peninsula Laboratories Inc.) diluted 5,000-fold with PBS was added to each well of a 384 well black plate (Nalge Nunc International Co., Ltd.) by 25 μl, and left standing overnight at 4° C. to immobilize the antibody in the plate. The antibody solution was removed, PBS solution (100 μl) containing 1% BSA was added to each well, and the mixture was left standing at room temperature for 2 hr for blocking. The blocking solution was removed, and each well was washed 5 times with 100 μl of 0.05% Tween20-PBS. […] Then, a biotinated angiotensin I solution (AnaSpec, 15 μl) prepared to 1.6 nM with a buffer [20 mM tris-hydrochloric acid (pH 7.4), 150 mM sodium chloride, 0.01% BSA, 0.05% Tween20] was added to each well, mixed with a plate mixer and left standing at room temperature for 1 hr. The solutions were removed from each well, and each well was washed 5 times with 100 μl of 0.05% Tween20-PBS. Horseradish peroxydase Streptavidin (PIERCE Biotecnology inc., 25 μl) diluted to 100 ng/ml with a buffer [20 mM tris-hydrochloric acid (pH 7.4), 150 mM sodium chloride, 0.1% BSA, 0.05% Tween 20] was added to each well and the mixture was left standing at room temperature for 30 min. The solutions were removed from each well, and each well was washed 5 times with 100 μl of 0.05% Tween20-PBS. SuperSignal ELISA femto Maximum Sensitivity Substrate (PIERCE Biotecnology Inc.) was added by 25 μl and luminescence intensity was measured by EnVision (Perkin Elmer Inc.). An analytical curve was drawn from the luminescence intensity of wells containing an angiotensin I standard solution, and the amount of angiotensin I produced by an enzyme reaction was calculated and used as an index of renin activity.

In the case of `COCCCCn1c(C(=O)N(CC(C)C)[C@@H]2CNC[C@H]([C@H](C)O)C2)nc2ccccc21.Cl.Cl` [Example 74-1, N-{(3S,5R)-5-[(1S)-1-hydroxyethyl]piperidin-3-yl}-1-(4-methoxybutyl)-N-(2-methylpropyl)-1H-benzimidazole-2-carboxamide dihydrochloride], the inhibition at 0.1 µM at Human renin came to 94%. Further, the “Macaca fascicularis plasma renin activity: PPA inhibitory activity (%, n = 3-7)” value in experiment [1] is given as 90%.
